# Results published in patent US20030109571A1, “Thromboxane ligands without blood clotting side effects” (ALLERGAN SALES, INC., priority 1993, published 2003).
# pEC50: −log10 of the molar value.
# What was measured:
# HPRP = details: in words; cited from earlier work
# [1] = molecular target: T1, TP-receptor (vascular, TPVASC) (Rattus norvegicus, UniProt P34978); assay: TP-vasoconstrictor activity: contraction of rings of isolated rat thoracic aorta, without or with SQ29,548; details: for pEC50: Table 1, read-out: EC50 at TPVASC (Rat Aorta)
# T1 construct: measured in vitro in isolated smooth muscle preparations; from tissue; host or cells: rings of isolated rat thoracic aorta
# T1 sequence (P34978 1-341): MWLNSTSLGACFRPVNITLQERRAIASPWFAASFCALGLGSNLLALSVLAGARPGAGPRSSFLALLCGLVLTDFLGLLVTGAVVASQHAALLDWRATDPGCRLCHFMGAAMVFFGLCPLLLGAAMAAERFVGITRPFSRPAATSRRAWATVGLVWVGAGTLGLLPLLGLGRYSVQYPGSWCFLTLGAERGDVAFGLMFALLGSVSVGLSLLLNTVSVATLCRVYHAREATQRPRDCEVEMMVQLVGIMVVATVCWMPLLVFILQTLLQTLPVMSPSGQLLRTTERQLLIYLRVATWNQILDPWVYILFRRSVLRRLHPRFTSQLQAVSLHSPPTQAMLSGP
# Experimental: (§1) Activity at different prostanoid receptors was measured in vitro in isolated smooth muscle preparations. FP-activity was measured as contraction of the isolated feline iris sphincter. EP1-activity was measured as contraction of the longitudinal smooth muscle of the isolated guinea pig ileum. EP3-activity was measured as inhibition of the twitch response induced by electrical field stimulation in the isolated guinea pig was deferens and as contraction of the longitudinal smooth muscle of the isolated chick ileum. TP-vasoconstrictor activity was measured as contraction of rings of the isolated rat thoracic aorta. Effects on platelets from healthy human donors were measured by incubating platelet-rich plasma with the compounds described herein. Inhibition of aggregation was determined by the ability of the compounds described herein to inhibit platelet aggregation in platelet-rich plasma induced by 20 μM ADP.
# In addition, inhibition by the thromboxane A2-receptor antagonist SQ29,548 ([1S-[1α, 2α (5Z), 3α, 4α]]-7-[3-[[2-[phenylamino)carbonyl]-hydrazino]methyl]-7-oxabicyclo[2.2.1] hept-2-yl]-5-heptenoic acid) of vasoconstrictor activity was investigated.
# rabbit PRP = details: in words; cited from earlier work
# rat aorta = details: cited from earlier work
# TX synthetase = molecular target: T2, TX synthetase (Homo sapiens, UniProt P24557); details: in words; cited from earlier work
# T2 sequence (P24557 1-533): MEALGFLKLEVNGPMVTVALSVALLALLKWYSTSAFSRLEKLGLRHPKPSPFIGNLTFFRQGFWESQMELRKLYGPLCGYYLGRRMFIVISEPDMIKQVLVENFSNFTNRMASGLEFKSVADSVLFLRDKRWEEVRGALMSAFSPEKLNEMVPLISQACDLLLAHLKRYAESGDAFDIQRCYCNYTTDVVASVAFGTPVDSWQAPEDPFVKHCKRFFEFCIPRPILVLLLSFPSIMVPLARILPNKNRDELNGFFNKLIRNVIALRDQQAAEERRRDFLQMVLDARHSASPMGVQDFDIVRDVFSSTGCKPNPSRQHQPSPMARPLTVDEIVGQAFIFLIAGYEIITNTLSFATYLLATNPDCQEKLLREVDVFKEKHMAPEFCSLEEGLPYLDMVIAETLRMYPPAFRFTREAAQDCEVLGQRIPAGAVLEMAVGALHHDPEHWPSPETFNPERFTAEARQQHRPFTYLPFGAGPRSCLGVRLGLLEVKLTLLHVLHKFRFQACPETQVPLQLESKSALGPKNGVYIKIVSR
# Platelets (Human) = assay: Platelet aggregation in platelet-rich plasma from healthy human donors; format: cell-based
# Experimental: as §1
# FP prostanoid receptor = assay: FP-activity: contraction of the isolated feline iris sphincter; details: concentration producing 50% of maximal response; read-out: EC50 at FP (Cat Iris)
# Experimental: as §1
# TXA2 receptor = molecular target: T3, TXA2 receptor (Homo sapiens, UniProt P21731); details: in words; cited from earlier work
# T3 sequence (P21731 1-343): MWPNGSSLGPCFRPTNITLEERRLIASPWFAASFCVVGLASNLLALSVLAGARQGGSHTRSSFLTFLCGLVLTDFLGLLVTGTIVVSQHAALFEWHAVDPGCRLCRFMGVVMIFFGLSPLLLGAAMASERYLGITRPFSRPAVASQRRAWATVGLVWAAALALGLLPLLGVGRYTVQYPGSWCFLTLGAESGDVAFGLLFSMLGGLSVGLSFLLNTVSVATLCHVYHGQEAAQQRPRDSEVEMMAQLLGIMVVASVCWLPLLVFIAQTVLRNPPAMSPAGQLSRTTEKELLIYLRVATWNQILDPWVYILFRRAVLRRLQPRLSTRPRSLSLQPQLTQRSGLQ
Structure (SMILES),Inhibition of PGH2-induced aggregation of HPRP (HPRP),pEC50 [1],Activity in contracting vascular smooth muscle ([1]; in words),Aggregation of rabbit PRP (rabbit PRP),Antagonism of the aggregatory effect of TXA2 (rabbit PRP),Contraction of rat aortic strips relative to TXA2 (rat aorta) [× TXA2],Effect on TX (TXA2) synthetase (TX synthetase),"pEC50 (Platelets (Human); Table 1, read-out: EC50 Platelets (Human) Aggregation)",Ability to cause platelet aggregation (Platelets (Human); in words),pEC50 (FP prostanoid receptor),TXA2-like activity (TXA2 receptor)
CCCCC[C@H](O)/C=C/C1C[C@H]2CC(O2)[C@@H]1C/C=C\CCCC(=O)O (stereo partly shown) [Example 2],Inhibitor of PGH2-induced ag- gregation of HPRP^1,,,,,,,,,,
"CCCCCC(O)/C=C/C1C2CC(OC(=O)O2)C1C/C=C\CCCC(N)=O (stereo not drawn) [Example 15, 7-[6-carboamino-2-cis-hexenyl]-6-[3α-hydroxy-1-trans-octenyl]-3-oxo-2,4-dioxobicyclo [3.2.1] octane]",,7.24,pronounced activity,did not aggre-,did not,0.02,did not,5.51,no or minimal ability,6.41,
"CCCCCC(O)/C=C/C1C2CC(OC(=O)O2)C1C/C=C\CCCC(=O)NC(C)C (stereo not drawn) [Example 17, 7-[6-carboisopropylamino-2-cis-hexenyl]-6-[3α-hydroxy-1-trans-octenyl]-3-oxo-2,4-dioxobicyclo [3.2.1] octane]",,6.49,,,,,,,,5.52,Mixture of C-15 epimers has stong TXA2-like activity^14
